{"source": "patent US20080312292A1", "about": "“Antipruritics” (priority 2002, published 2008)", "key": {"human CB2R": {"target": "T1, human CB2R (Homo sapiens, UniProt P34972)", "T1 construct": "expressed in transfected cells; host or cells: CHO cells", "T1 sequence (P34972 whole entry)": "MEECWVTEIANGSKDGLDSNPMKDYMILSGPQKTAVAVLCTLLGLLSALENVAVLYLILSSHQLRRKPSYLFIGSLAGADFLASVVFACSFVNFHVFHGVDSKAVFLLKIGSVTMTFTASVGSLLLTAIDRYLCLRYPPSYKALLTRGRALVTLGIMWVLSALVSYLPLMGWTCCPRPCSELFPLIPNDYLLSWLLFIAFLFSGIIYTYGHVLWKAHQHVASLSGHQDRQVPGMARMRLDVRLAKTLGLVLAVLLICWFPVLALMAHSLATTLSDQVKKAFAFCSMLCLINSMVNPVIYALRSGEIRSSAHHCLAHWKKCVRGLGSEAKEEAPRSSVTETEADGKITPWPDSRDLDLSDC", "assay": "Cannabinoid receptor-mediated suppression of forskolin-stimulated cAMP synthesis, CB2R", "assay_type": "cell-based", "conditions": "CHO cells expressing human CB2R"}, "mouse CB1 receptor": {"target": "T2, mouse CB1 receptor (Mus musculus, UniProt P47746)", "T2 construct": "The membrane fractions of mouse brain and spleen that abundantly express CB1 and CB2 receptor, respectively; from tissue; host or cells: mouse brain membrane fraction (C57BL/6 J)", "T2 sequence (P47746 whole entry)": "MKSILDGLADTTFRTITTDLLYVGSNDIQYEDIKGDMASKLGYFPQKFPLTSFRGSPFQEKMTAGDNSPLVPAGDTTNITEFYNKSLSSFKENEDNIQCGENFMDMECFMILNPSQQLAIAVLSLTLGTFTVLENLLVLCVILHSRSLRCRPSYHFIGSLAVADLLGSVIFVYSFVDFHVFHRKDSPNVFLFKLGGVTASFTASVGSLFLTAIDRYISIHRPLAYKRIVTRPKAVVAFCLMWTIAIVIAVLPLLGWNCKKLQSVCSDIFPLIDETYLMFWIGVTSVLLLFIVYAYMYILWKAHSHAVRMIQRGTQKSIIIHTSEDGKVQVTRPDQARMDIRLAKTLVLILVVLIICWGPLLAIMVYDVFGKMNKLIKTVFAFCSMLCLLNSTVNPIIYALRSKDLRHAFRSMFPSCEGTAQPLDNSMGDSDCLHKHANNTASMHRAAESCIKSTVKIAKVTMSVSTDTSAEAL", "assay": "Binding inhibitory activity to mouse cannabinoid receptors, brain membrane fraction", "parameters": "species or system C57BL/6 J mice", "conditions": "mouse brain membrane fraction; read-out: Binding Assay: Ki Brain (CB1)"}, "[1]": {"target": "T3, Human cannabinoid receptor CB1R (Homo sapiens, UniProt P21554)", "T3 construct": "expressed in transfected cells; host or cells: CHO cells", "T3 sequence (P21554 whole entry)": "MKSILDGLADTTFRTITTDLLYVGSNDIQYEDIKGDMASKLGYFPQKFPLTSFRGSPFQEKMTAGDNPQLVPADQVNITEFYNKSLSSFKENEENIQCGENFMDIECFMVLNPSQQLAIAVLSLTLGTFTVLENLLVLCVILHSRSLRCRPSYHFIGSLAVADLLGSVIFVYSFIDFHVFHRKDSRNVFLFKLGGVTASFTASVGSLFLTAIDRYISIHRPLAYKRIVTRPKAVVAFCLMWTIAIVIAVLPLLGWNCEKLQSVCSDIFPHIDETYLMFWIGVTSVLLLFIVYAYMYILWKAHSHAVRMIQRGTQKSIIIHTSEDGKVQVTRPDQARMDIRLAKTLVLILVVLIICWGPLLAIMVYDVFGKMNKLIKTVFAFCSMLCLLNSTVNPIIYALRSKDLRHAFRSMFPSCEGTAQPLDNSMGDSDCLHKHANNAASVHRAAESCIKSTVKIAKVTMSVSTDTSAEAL", "assay": "Human cannabinoid receptor binding inhibition, [3H]CP55940, CB1R", "conditions": "membranes of CB1R-expressing CHO cells, [3H]CP55940 0.5 nM; read-out: Ki CB1 receptor", "procedure": "(§1) The crude membrane fractions as Human cannabinoid receptor were then prepared from the CB1R or CB2R-expressing CHO cells. Receptor binding assay was performed by incubating the membranes with each test compound and 38,000 dpm [^3H]CP55940 (at a final concentration of 0.5 nM: NEN Life Science Products) in the assay buffer (50 mM Tris-HCl; 1 mM EDTA, 3 mM MgCl2, pH 7.4) containing 0.5% bovine serum albumin (BSA) for 2 hr at 25° C. The incubation mixture was filtered through 1% polyethylenimine (PEI)-treated GF/C glass filter and washed with 50 mM Tris-HCl (pH 7.4) containing 0.1% BSA. The radioactivity was then counted with a liquid scintillation counter. […] Ki value of test compound is calculated by obtained IC50 value and Kd value of [^3H]CP55940."}, "mouse CB2 receptor": {"target": "T4, mouse CB2 receptor (Mus musculus, UniProt P47936)", "T4 construct": "The membrane fractions of mouse brain and spleen that abundantly express CB1 and CB2 receptor, respectively; from tissue; host or cells: mouse spleen membrane fraction (C57BL/6 J)", "T4 sequence (P47936 whole entry)": "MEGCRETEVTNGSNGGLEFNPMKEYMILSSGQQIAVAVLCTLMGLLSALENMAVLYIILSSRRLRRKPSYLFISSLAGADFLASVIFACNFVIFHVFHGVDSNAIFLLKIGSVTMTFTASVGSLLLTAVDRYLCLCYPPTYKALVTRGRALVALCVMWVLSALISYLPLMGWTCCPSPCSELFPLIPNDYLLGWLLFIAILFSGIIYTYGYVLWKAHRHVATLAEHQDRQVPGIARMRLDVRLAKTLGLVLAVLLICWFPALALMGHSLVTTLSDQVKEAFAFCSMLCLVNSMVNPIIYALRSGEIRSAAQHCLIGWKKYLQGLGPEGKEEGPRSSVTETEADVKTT", "assay": "Binding inhibitory activity to mouse cannabinoid receptors, spleen membrane fraction", "parameters": "species or system C57BL/6 J mice", "conditions": "mouse spleen membrane fraction; read-out: Binding Assay: Ki Spleen (CB2)"}, "[2]": {"target": "T5, Human cannabinoid receptor CB2R (Homo sapiens, UniProt P34972)", "T5 construct": "expressed in transfected cells; host or cells: CHO cells", "T5 sequence (P34972 whole entry)": "as the sequence (P34972 whole entry) above", "assay": "Human cannabinoid receptor binding inhibition, [3H]CP55940, CB2R", "conditions": "membranes of CB2R-expressing CHO cells, [3H]CP55940 0.5 nM; read-out: Ki CB2 receptor", "procedure": "as §1"}, "[3]": {"tested_on": "compound 48/80-induced pruritus", "assay": "Inhibitory effect on compound 48/80-induced pruritus in ICR strain mice", "conditions": "100 mg/kg (p.o.), ICR mice, compound 48/80-induced scratching"}, "human CB1R": {"target": "T6, human CB1R (Homo sapiens, UniProt P21554)", "T6 construct": "expressed in transfected cells; host or cells: CHO cells", "T6 sequence (P21554 whole entry)": "as the sequence (P21554 whole entry) above", "assay": "cell-based", "conditions": "CHO cells expressing human CB1R; read-out: cAMP Inhibition: IC50 CB1"}}, "note": "Where two headings read alike, the source gives them in different places. Marks after values point to notes of the source that are not given here.", "data": [{"compound": "CCCCn1c2c(cc(C(=O)NCc3ccccc3)c1=O)CCCCCC2", "note": "[Compound 4-101]", "values": [{"measurement": "IC50", "setting": "human CB2R; forskolin-stimulated cAMP synthesis, read-out: CB2 receptor IC50", "result": 1.4, "unit": "nM"}, {"measurement": "IC50", "setting": "human CB2R; read-out: cAMP Inhibition: IC50 CB2", "result": 1.4, "unit": "nM"}, {"measurement": "Ki", "setting": "mouse CB1 receptor", "result": 35, "unit": "nM"}, {"measurement": "Ki", "setting": "[1]", "result": 890, "unit": "nM"}, {"measurement": "Ki", "setting": "mouse CB2 receptor", "result": 0.6, "unit": "nM"}, {"measurement": "Ki", "setting": "[2]", "result": 1.5, "unit": "nM"}, {"measurement": "Antipruritic Effect (%)", "setting": "[3]", "result": "81** %"}, {"measurement": "IC50", "setting": "human CB1R", "result": 60.3, "unit": "nM"}]}]}
